Results taken from US8778987B2, “Use of 4-hydroxychalcone derivatives for masking an unpleasant taste” (Symrise AG, priority 2008, dated 2014).

Assays:
Format in all cases: in vivo
[1] = system: bitter impression of aqueous salicin solution; experiment: Reducing bitterness of a bitter substance solution, rated by a panel of experts (salicin); conditions: 30 ppm substance, 250 ppm salicin
Protocol: (§1) In order to quantify the reduction in the bitter impression, the bitterness of an aqueous bitter substance solution and a sample containing the same quantity of bitter substance and a varying quantity of the exemplary compound, was determined by a panel of experts (rating 0 [not bitter] to 10 [extremely bitter]). Evaluation took place by calculating the reduction (in %) in the bitter impression from the average values of the assessments of the bitter substance solution or the solutions containing bitter substance and exemplary compound. […] (2,4-DHB) was used as a comparison from U.S. Pat. No. 5,643,941.

[2] = system: bitter impression of aqueous caffeine solution; experiment: Reducing bitterness of a bitter substance solution, rated by a panel of experts (caffeine); conditions: 500 ppm caffeine; for Bitter impression (1-10) with: error = 95% confidence range
Protocol: as §1

[3] = system: taste impressions of meat stock with 0.4 wt. % sodium chloride and 0.4 wt. % potassium chloride; experiment: Reduction in unpleasant taste impressions of potassium chloride-containing meat stock (triangle difference testing); conditions: 30 ppm
Protocol: A fat- and common salt-free meat stock is prepared with 0.4 wt. % sodium chloride and 0.4 wt. % potassium chloride (in each case relative to total weight) (comparison solution A). The same solution is prepared again and a quantity of phloretin (compound 4 from Example 1) is added. Solution A is served up to the testers once with the designation “standard solution”, and at the same time solution A and solution B are served up as “test solution 1” or “test solution 2” in a random order unknown to the respective tester (i.e. solutions A and B may have different designations for different testers; each tester has to test three solutions). In a first test phase, the testers are asked whether one of the three solutions tastes different from the other two (triangle difference testing). If the response to this question is “No”, the test is stopped for that tester. If the response to this question is “Yes”, the tester has to quantify the flavor qualities, listed below, of “test solution 1” or “test solution 2” deviating from the “standard solution” (relative to the “standard solution”, 0 flavor quality identical to the standard, −4 very much weaker than the standard, +4 very much stronger than the standard). Taking as basis the results from all the testers, the average of all deviations from the “standard solution” is calculated for the individual flavor qualities.

[4] = system: bitter impression of aqueous quinine hydrochloride solution; experiment: Reducing bitterness of a bitter substance solution, rated by a panel of experts (quinine hydrochloride); conditions: 30 ppm substance, 5 ppm quinine hydrochloride
Protocol: as §1

Compound: O=C(CCc1ccc(O)cc1)c1c(O)cc(O)cc1O [Compound 4, 3-(4-hydroxyphenyl)-1-(2,4,6-trihydroxy-phenyl)propan-1-one]
- % reduction in bitter impression [1]: 18%, p < 0.1
- Tester positive (number of testers who were able to identify masking) ([1]; 15 testers total): 10
- Bitter impression (1-10) with ([1]; error = 95% confidence range): 6.0 ± 1.8
- % reduction in bitter impression ([2]; 50 ppm substance): 28%, p < 0.05
- Tester positive (number of testers who were able to identify masking) ([2]; 50 ppm substance): 13
- Bitter impression (1-10) with ([2]; 50 ppm substance): 3.9 ± 1.8
- Positive testers ([3]; of 21 testers, triangle difference testing): 16 (p < 0.05)
- Aromaticity, average deviation from standard solution ([3]; scale −4 to +4): −0.1
- Bitter, average deviation from standard solution ([3]; scale −4 to +4): −0.4
- Mouth fullness, average deviation from standard solution ([3]; scale −4 to +4): 0.3
- Sour, average deviation from standard solution ([3]; scale −4 to +4): 0.1
- Sweet, average deviation from standard solution ([3]; scale −4 to +4): 0.9
- Salty, average deviation from standard solution ([3]; scale −4 very much weaker to +4 very much stronger than the standard): −0.7
- % reduction in bitter impression [4]: 25%, n.s.
- Tester positive (number of testers who were able to identify masking) ([4]; 15 testers total): 10
- Bitter impression (1-10) with ([4]; error = 95% confidence range): 2.0 ± 1.4

Compound: O=C(O)c1ccc(O)cc1O [2,4-DHB, 2,4-dihydroxybenzoic acid, reference compound]
- % reduction in bitter impression ([2]; 100 ppm substance): 3%, n.s.
- Tester positive (number of testers who were able to identify masking) ([2]; 100 ppm substance, 15 testers total): 9
- Bitter impression (1-10) with ([2]; 100 ppm substance): 5.0 ± 1.0
